From patent US5250537A, “5,6,7,8,9,10-hexahydro-7 ,10-iminocyclohept[b]indole,-6,7,8,9,10-hexahydro-7,11-imino-5H-cyclooct[ b]indole and substituted derivatives” (Scios Nova Inc., priority 1992, dated 1993)
Structures can show the parent of a compound that is named as a salt. Where two headings read alike, the source gives them in different places.

Key:
dopamine receptors [1] = conditions: Welch et al. 1980; cited from earlier work
[2] = molecular target: sigma receptor ([3H]DTG site); assay: In Vitro Sigma Receptor Binding, [3H]DTG; conditions: guinea pig brain; 45 minutes at 25° C.
Protocol: (§1) For both assays frozen guinea pig brains (PelFreez Biologicals, Rogers, AK) were thawed and homogenized in 10 volumes (w/v) of ice cold 0.32M sucrose using 10 strokes of a motor-drivenglass-fitted teflon pestle adjusted to 600 rpm. The homogenate was centrifuged (4° C.) at 900× g for 10 minutes and the resultant supernatant collected and centrifuged at 22,000×g for 20 minutes. The pellet obtained from the centrifugation was resuspended in 10 volumes of 50 mM Tris HCl (pH 7.4, 25° C.) and incubated for 30 minutes at 37° C. Following the preincubation, the homogenate was centrifuted at 22,000×g for 20 minutes and the final pellet was resuspended in buffer to a protein concentration of 0.5-1.0 mg/mL for use in the assay.
(§2) Binding reactions were initiated by the addition of tissue (800 μL) to tubes containing assay buffer, the radioligand (final concentration 1-3 nM) and the compound of interest. Haloperidol (10 μM) and (+)-3-PPP (10 μM) were used to determine the levels of […] [^3 H]DTG and [^3 H](+)PPP binding, respectively. Final assay volume was 1 mL. Reactions were allowed to proceed for 45 minutes at 25° C. and terminated by rapid filtration over Whatman GF/B filters which were washed 3 times with 5 mL of cold buffer. Radioactivity trapped on the filters was determined using routine methods. […] All assays were performed using triplicate determinations. For comparison purposes, IC50 values are reported rather than Ki values.

dopamine (D-2) receptors = molecular target: T1, dopamine (D-2) receptors (Rattus norvegicus, UniProt P61169); assay: In Vitro Dopamine (D-2) Receptor Binding, [3H]sulpiride; conditions: read-out: Dopamine D-2 [3H]sulpiride Ki
T1 construct: the corpus striatum was dissected and homogenized; from tissue; host or cells: rat corpus striatum membranes
Protocol: On the day of assay, rats were sacrificed by decapitation, the corpus striatum was dissected and homogenized in 20 volumes of ice-cold 50 mM Tris HCl (pH 7.5, 25° C.). The homogenate was centrifuged (4° C.) at 48,000×g for 10 minutes and the resulting pellet was resuspended in 20 volumes of fresh buffer and recentrifuged. […] A portion of the suspension (800 μL) was added in triplicate to tubes containing 3 nM [^3 H]sulpiride and the test compound. The final assay volume was 1 mL; haloperidol (10 μM) was used to determine non-specific binding. Following a 60 minute incubation at 25° C., the reactions were terminated by rapid filtration over Whatman GF/B filters which had been pretreated in a solution of 0.3% (w/v) of aqueous polyethylenimine. Filters were washed three times using 5 mL of ice-cold buffer and processed using standard procedures to determine radioactivity. IC50 values were obtained from concentration-response curves in which a number of concentrations of test compound were examined. Ki values were determined using the Cheng-Prusoff equation.

[3] = molecular target: T2, sigma receptor ([3H](+)-3-PPP site) (Cavia porcellus, UniProt Q60492); assay: In Vitro Sigma Receptor Binding, [3H](+)-3-PPP; design: species or system guinea pig; conditions: 45 minutes at 25° C.
T2 construct: frozen guinea pig brains; tissue PelFreez Biologicals, Rogers, AK; host or cells: guinea pig brain membranes
Protocol: as §1, §2

[4] = molecular target: T3, serotonin 5-HT2 receptors (Rattus norvegicus, UniProt P14842); assay: In Vitro Serotonin (5-HT2) Receptor Binding, [3H]ketanserin; conditions: for Ki: rat cortical membranes, 1 nM [3H]ketanserin
T3 construct: Rat cortical synaptosomal membranes were prepared on the day of assay; from tissue; host or cells: rat frontal cortex synaptosomal membranes
Protocol: The potency of compounds to inhibit the specific binding of [^3 H]ketanserin (84.2 Ci/mM) to serotonin 5-HT2 receptors was determined as detailed previously [J. E. Leysen, C. J. E. Niemegers, J. M. Van Neuten and P. M. Laduron, Mol. Pharmacol., 21, 301-314 (1982)]. Rat cortical synaptosomal membranes were prepared on the day of assay. Animals were sacrified by decapitation, the frontal cortex was removed and homogenized in 10 volumes (w/v) of ice-cold 0.32M sucrose using a motor driven teflon pestle fitted to a glass tube. The synaptosomal pellet was suspended in 50 mM Tris HCl (pH 7.6 at 25° C.) to a concentration of 7.5 mg original wet weight/mL. For the binding reaction, 400 μL of this tissue suspension was added to polypropylene tubes containing 50 mM Tris HCl and [^3 H]ketanserin (final concentration of 1 nM) in a final assay volume of 0.5 mL. Following a 15 minute incubation at 37° C., the binding reaction was terminated by rapid vacuum filtration over Whatman GF/B filters (presoaked in 0.1% PEI) followed by 3×4 mL washes with ice cold 50 mM Tris HCl. Nonspecific binding was assessed in the presence of 10 μM methysergide. All incubations were performed in triplicate. IC50 values were determined using log logit analysis.

dopamine receptors [5] = assay: In Vivo Dopamine Antagonist Activity (inhibition of apomorphine-induced climbing); design: species or system mice (CF-1)
[6] = Motor impairment (rotorod); assay type: in vivo, mice (CF-1); conditions: for dose at which impairment of rotorod performance was noted: oral
Protocol: (§3) The potency of selected compounds to produce catalepsy and motor impairment was evaluated according to the following methods. Groups of male CF-1 mice (Harlan Sprague-Dawley, Inc.), weighing 25-30 g, were food-deprived for 3-5 hours prior to oral administration of the compound of interest. These agents were suspended in 10% DMSO/10% Tween/80% distilled water vehicle and administered in a volume of 0.01 mL/g body weight. Fifty-five minutes after oral (po) administration, the presence or absence of catalepsy was determined by placing the forepaws on a rod (6 mm diameter) mounted 39 mm above the floor of the test chamber. Pressure was applied to immobilize the subject with its back in a concave position. Following removal of pressure, the latency to recover normal posture, as defined by the return of at least one forepaw to the floor of the chamber, or the placement of one hindlimb on the bar, was recorded. Mice were tested three times and considered cataleptic if recovery was not apparent within 30 seconds during any of the three trials. Following determination of catalepsy and at 60 minutes post administration of compound, motor impairment was determined by placing mice on a rotating knurled bar (Rotorod, Ugo Basile model 7600; 6-7 revolutions per minute; 3.8 cm diameter). Mice were tested up to three times; mice failing to remain on the bar for 60 sec during all three tests were considered impaired.

[7] = In vivo Cataleptic Activity; design: species or system mice (CF-1); conditions: for catalepsy (in words): any dose tested, oral
Protocol: as §3

dopamine D-2 receptors = conditions: Snyder and Largent 1988; cited from earlier work
sigma receptors = conditions: Snyder and Largent 1988; cited from earlier work
[8] = rat corpus striatum, 3 nM [3H]sulpiride
[9] = guinea pig brain, read-out: Sigma [3H](+)-3-PPP binding IC50

T3 sequence (P14842 whole entry): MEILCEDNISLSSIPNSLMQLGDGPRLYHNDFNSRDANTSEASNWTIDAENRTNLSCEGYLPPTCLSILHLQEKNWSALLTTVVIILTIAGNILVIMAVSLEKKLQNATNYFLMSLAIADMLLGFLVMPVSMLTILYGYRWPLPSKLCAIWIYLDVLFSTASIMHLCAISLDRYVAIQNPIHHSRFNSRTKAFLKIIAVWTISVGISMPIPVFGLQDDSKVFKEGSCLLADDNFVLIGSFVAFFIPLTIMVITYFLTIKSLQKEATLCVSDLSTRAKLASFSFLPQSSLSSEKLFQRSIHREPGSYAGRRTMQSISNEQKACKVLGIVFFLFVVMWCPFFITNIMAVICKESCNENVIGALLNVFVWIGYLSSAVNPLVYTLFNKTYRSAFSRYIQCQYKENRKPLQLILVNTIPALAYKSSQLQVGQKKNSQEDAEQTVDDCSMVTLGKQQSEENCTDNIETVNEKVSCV
T1 sequence (P61169 whole entry): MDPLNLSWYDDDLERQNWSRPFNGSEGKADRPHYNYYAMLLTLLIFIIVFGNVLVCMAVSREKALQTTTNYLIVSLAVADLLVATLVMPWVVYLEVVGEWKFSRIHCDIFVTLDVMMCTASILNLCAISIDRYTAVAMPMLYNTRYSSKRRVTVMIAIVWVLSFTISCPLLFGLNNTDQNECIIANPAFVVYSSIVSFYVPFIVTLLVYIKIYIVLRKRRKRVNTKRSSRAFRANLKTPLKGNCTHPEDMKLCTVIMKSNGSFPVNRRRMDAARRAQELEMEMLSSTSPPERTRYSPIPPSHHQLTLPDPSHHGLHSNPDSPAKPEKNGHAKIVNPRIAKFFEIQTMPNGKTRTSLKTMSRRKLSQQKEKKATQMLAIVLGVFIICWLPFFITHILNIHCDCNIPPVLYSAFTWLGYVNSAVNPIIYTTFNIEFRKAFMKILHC
T2 sequence (Q60492 whole entry): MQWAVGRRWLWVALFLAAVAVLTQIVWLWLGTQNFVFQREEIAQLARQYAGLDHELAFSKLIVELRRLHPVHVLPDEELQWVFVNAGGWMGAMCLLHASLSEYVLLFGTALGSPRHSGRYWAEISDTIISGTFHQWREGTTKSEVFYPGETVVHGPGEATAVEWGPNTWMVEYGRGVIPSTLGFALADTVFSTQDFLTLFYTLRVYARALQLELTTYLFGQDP

Row | Structure (SMILES) | IC50 [2] [nM] | Ki (dopamine (D-2) receptors; [8]) [nM] | IC50 [3, 9] [nM] | Ki [4] [nM] | further results
1 | OC(CCCN1CC[C@@H]2[C@@H](C1)c1cc(F)ccc1N2c1ccc(F)cc1)c1ccc(F)cc1 (relative stereo) [4a,9b-trans-8-fluoro-5-(4-fluorophenyl)-2-[4-(4-fluorophenyl)-4-hydroxy-butyl]-2,3,4,4a,9b-hexahydro-1H-pyrido[4,3-b]indole hydrochloride] | – | – | – | – | neuroleptic activity (in words) (dopamine receptors [1]): potent neuroleptic which acts by blocking dopamine receptors
2 | O=C1c2ccccc2C(=O)N1CCCN1C2CCC1c1c([nH]c3ccc(F)cc13)C2 (centres unmarked) [6 F H (CH2)3 2-phthalimido 2] | 836 | 12300 ± 1700 | 3330 ± 1810 | – | inhibition at 1 µM ([4]; read-out: Serotonin 5-HT2 [3H]ketanserin, value @ 1 μM): 4.9%
3 | O=C(COc1ccc(Cl)c(Cl)c1)N1C2CCC1c1c([nH]c3ccccc13)C2 (centres unmarked) [7 H H COCH2 O-3,4-Cl2 Ph 2] | > 10000 | 64500 | > 10000 | – | inhibition at 1 µM ([4]; read-out: Serotonin 5-HT2 [3H]ketanserin, % @ 1 μM): 24.7%
4 | Fc1ccc(CCCCN2C3CCCC2c2c([nH]c4ccc(F)cc24)C3)cc1 (centres unmarked) [11 F H (CH2)4 4-FPh 3] | 61 | 1470 | 150 | 205 | –
5 | Fc1ccc(C(=CCCN2C3CCCC2c2c([nH]c4ccccc24)C3)c2ccc(F)cc2)cc1 (centres unmarked) [11 H H (CH2)2 CHC (4-FPh)2 3] | 1880 | 2310 | > 10000 | > 1000 | –
6 | O=C(CCCN1C2CCCC1c1c([nH]c3ccccc13)C2)c1ccc(F)cc1 (centres unmarked) [11 H H (CH2)3 CO 4-FPh 3] | 43 | 38 | – | 0.46 | IC50 ([3]; Sigma [3H](+)-3-PPP binding IC50, guinea pig brain): 89 nM
7 | Fc1ccc(CCCCN2C3CCCC2c2c([nH]c4ccccc24)C3)cc1 (centres unmarked) [11 H H (CH2)4 4-FPh 3] | 64 | 915 | 279 | 23.6 | –
8 | Fc1ccc(C(=CCCN2C3CCCC2c2c([nH]c4ccc(F)cc24)C3)c2ccc(F)cc2)cc1 (centres unmarked) [12 F H (CH2)2 CHC (4-FPh)2 3] | 1910 | 3730 | 10000 | 625 | –
9 | O=C(CCCN1C2CCCC1c1c([nH]c3ccc(F)cc13)C2)c1ccc(F)cc1 (centres unmarked) [12 F H (CH2)3 CO 4-FPh 3] | 23 | – | 103 | 2.5 | Ki (dopamine (D-2) receptors): 200 nM
10 | Fc1ccc2[nH]c3c(c2c1)C1CCCC(C3)N1CCCCc1ccccc1 (centres unmarked) [12 F H (CH2)4 Ph 3] | 42 | 1870 | 117 | 172 | –
11 | Fc1ccc2[nH]c3c(c2c1)C1CCCC(C3)N1 (centres unmarked) [12 F H -- H 3] | 509 | 58300 | 305 | 3000 | –
12 | O=C(CCCCN1C2CCC1c1c([nH]c3ccccc13)C2)c1ccc(F)cc1 (centres unmarked) [Example 1 H H (CH2)4 CO 4-FPh 2, 11-[5-(4-fluorophenyl)-5-oxopentyl]-5,6,7,8,9,10-hexahydro-7,10-iminocyclohept[b]indole] | – | – | – | – | potency (ED50) to inhibit apomorphine-induced climbing (dopamine receptors [5]; oral administration, apomorphine 3 mg/kg sc): 15.7 mg/kg; Failing Rotorod Number ([6]; 300 mg/kg po, n=4): 1; Failing Rotorod Number ([6]; 500 mg/kg po, n=4): 4; dose at which impairment of rotorod performance was noted [6]: 300 to 500 mg/kg; Cataleptic Number ([7]; 300 mg/kg po, n=4): 0; Cataleptic Number ([7]; 500 mg/kg po, n=4): 0; catalepsy (in words) [7]: catalepsy was not observed
13 | O=C(CCCN1C2CCC1c1c([nH]c3ccc(F)cc13)C2)c1ccc(F)cc1 (centres unmarked) [Example 4 F H (CH2)3 CO 4-FPh 2, 2-fluoro-11-[4-(4-fluorophenyl)-4-oxobutyl]-5,6,7,8,9,10-hexahydro-7,10-iminocyclohept[b]indole] | – | – | – | – | Failing Rotorod Number ([6]; 300 mg/kg po, n=4): 2; Failing Rotorod Number ([6]; 500 mg/kg po, n=3): 1; dose at which impairment of rotorod performance was noted [6]: 300 to 500 mg/kg; Cataleptic Number ([7]; 300 mg/kg po, n=4): 0; Cataleptic Number ([7]; 500 mg/kg po, n=3): 0; catalepsy (in words) [7]: catalepsy was not observed
14 | CN(C)CCCN1c2ccccc2Sc2ccc(Cl)cc21 [chlorpromazine] | – | – | – | – | binding to dopamine D-2 receptors (in words) (dopamine D-2 receptors): bind to both dopamine D-2 and sigma receptors; binding to sigma receptors (in words) (sigma receptors): bind to both dopamine D-2 and sigma receptors
15 | O=C(CCCN1CCC(O)(c2ccc(Cl)cc2)CC1)c1ccc(F)cc1 [haloperidol] | – | – | – | – | potency to inhibit apomorphine-induced climbing (reference) (dopamine receptors [5]; intraperitoneal (ip) administration): 0.01 mg/kg; binding to dopamine D-2 receptors (in words) (dopamine D-2 receptors): bind to both dopamine D-2 and sigma receptors; binding to sigma receptors (in words) (sigma receptors): bind to both dopamine D-2 and sigma receptors
